Assay results from the NIST ThermoML archive (doi:10.1016/j.jct.2018.08.036).
Values joined by “and” are separate entries in the source; they are usually repeats but may differ in a detail not shown here. Equal values may be shown once.

Legend:
[1] = refractive index (Na D-line) (dimensionless); conditions: 100 kPa, Liquid, Standard Abbe refractometry
[2] = 100 kPa, Liquid; for speed of sound: Frequency=3 MHz, Single path-length method; for mass density: Vibrating tube method; for viscosity: Falling or rolling sphere viscometry
[3] = xn = mol fraction of the nth substance listed; conditions: 100 kPa, Liquid, x1 = 1; for viscosity: Falling or rolling sphere viscometry; for speed of sound: Frequency=3 MHz, Single path-length method; for mass density: Vibrating tube method
[4] = refractive index (Na D-line) (dimensionless); xn = mol fraction of the nth substance listed; conditions: 100 kPa, Liquid, Standard Abbe refractometry, x1 = 1

CCC(C)c1ccccc1 (centres undefined) [(1-methylpropyl)benzene]
Conditions | mass density, [2] [kg/m3] | refractive index, [1] | speed of sound, [2] [m/s] | viscosity, [2] [mPa·s]
293.15 K | 861.95 | 1.49 | 1333.8 | –
298.15 K | 857.89 | 1.4876 | 1313.8 | 0.912
308.15 K | 849.78 | 1.4827 | 1274.5 | 0.796
318.15 K | 841.64 | 1.4778 | 1235.7 | 0.707
323.15 K | 837.48 | 1.4753 | 1216.1 | –

CCCCCCCCCCCCCCCC [hexadecane]
Conditions | mass density, [2] | refractive index, [1] | speed of sound, [2] | viscosity, [2]
293.15 K | 773.33 kg/m3 | 1.4345 | 1357.5 m/s | 3.341 mPa·s
298.15 K | 769.86 kg/m3 and 769.81 kg/m3 | 1.4324 | 1338.6 m/s and 1338.5 m/s | 2.968 mPa·s and 3.035 mPa·s
303.15 K | 766.4 kg/m3 | 1.4304 | 1319.9 m/s | 2.656 mPa·s
308.15 K | 762.94 kg/m3 and 762.89 kg/m3 | 1.4283 | 1301.3 m/s and 1301.2 m/s | 2.389 mPa·s and 2.439 mPa·s
313.15 K | 759.48 kg/m3 | 1.4261 | 1282.9 m/s | 2.164 mPa·s
318.15 K | 755.99 kg/m3 and 755.98 kg/m3 | 1.4241 | 1264.6 m/s and 1264.7 m/s | 1.971 mPa·s and 2.008 mPa·s
323.15 K | 752.58 kg/m3 | 1.422 | 1246.6 m/s | 1.8 mPa·s

CCCCCCCCCCCCCCCC [hexadecane] + CCC(C)c1ccccc1
Conditions | mass density, [3] [kg/m3] | refractive index, [4] | speed of sound, [3] [m/s] | viscosity, [3] [mPa·s]
298.15 K | 769.81 | 1.4324 | 1338.5 | 3.035
308.15 K | 762.89 | 1.4283 | 1301.2 | 2.439
318.15 K | 755.98 | 1.4241 | 1264.7 | 2.008

CCCCCCCCCCCCCCCC [hexadecane] + CCCc1ccccc1
Conditions | mass density, [3] [kg/m3] | refractive index, [4] | speed of sound, [3] [m/s] | viscosity, [3] [mPa·s]
298.15 K | 769.86 | 1.4324 | 1338.6 | 2.968
308.15 K | 762.94 | 1.4283 | 1301.3 | 2.389
318.15 K | 755.99 | 1.4241 | 1264.6 | 1.971

CCCc1ccccc1 [propylbenzene]
Conditions | mass density, [2] [kg/m3] | refractive index, [1] | speed of sound, [2] [m/s] | viscosity, [2] [mPa·s]
288.15 K | – | – | – | 0.924
293.15 K | 862.72 | 1.4921 | 1341.5 | 0.846
298.15 K | 858.45 | 1.4896 | 1320.6 | 0.792
303.15 K | 854.28 | 1.487 | 1300.4 | 0.742
308.15 K | 850.01 | 1.4844 | 1280.6 | 0.699
313.15 K | 845.81 | 1.4818 | 1260.9 | 0.655
318.15 K | 841.53 | 1.4792 | 1241 | 0.626
323.15 K | 837.31 | 1.4766 | 1221.5 | 0.601
